Assay results as given in PubChem BioAssay AID330 (DTP/NCI, 2004).
“And” between values parts separate entries of the source, which are not always exact repeats. Equal values may be shown once. Inconclusive results and toxic doses are left out. The calls were made as follows: active = survival T/C of 150% or more; inactive = T/C below 125% in these data.

Test system: P388 leukemia ip, CD2F1 mice, survival T/C
Assay: NCI In Vivo Anticancer Drug Screen. Data for tumor model P388 Leukemia (intraperitoneal) in CD2F1 (CDF1) mice
Settings: endpoint: median survival time, higher = longer survival
Method in brief: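 Mice carrying the transplanted tumor received test compound or vehicle. Survival was recorded in each group, and the value is the treated-group measurement divided by that of the vehicle-treated control group.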

[1] = dose: 60.0 mg/kg/injection, schedule: Q01DX005 (ip), vehicle: Klucel (hydroxypropylcellulose) (HPC)
[2] = dose: 120.0 mg/kg/injection, schedule: Q01DX005 (ip), vehicle: Klucel (hydroxypropylcellulose) (HPC)
[3] = dose: 240.0 mg/kg/injection, schedule: Q01DX005 (ip), vehicle: Klucel (hydroxypropylcellulose) (HPC)
[4] = dose: 50.0 mg/kg/injection, schedule: Q01DX005 (ip), vehicle: Klucel (hydroxypropylcellulose) (HPC)
[5] = dose: 100.0 mg/kg/injection, schedule: Q01DX005 (ip), vehicle: Klucel (hydroxypropylcellulose) (HPC)
[6] = dose: 200.0 mg/kg/injection, schedule: Q01DX005 (ip), vehicle: Klucel (hydroxypropylcellulose) (HPC)
[7] = dose: 50.0 mg/kg/injection, schedule: Q01DX005 (ip), vehicle: saline
[8] = dose: 100.0 mg/kg/injection, schedule: Q01DX005 (ip), vehicle: saline
[9] = dose: 200.0 mg/kg/injection, schedule: Q01DX005 (ip), vehicle: saline
[10] = dose: 25.0 mg/kg/injection, schedule: Q01DX009 (ip), vehicle: saline with Tween-80
[11] = dose: 50.0 mg/kg/injection, schedule: Q01DX009 (ip), vehicle: saline with Tween-80
[12] = dose: 100.0 mg/kg/injection, schedule: Q01DX009 (ip), vehicle: saline with Tween-80
[13] = dose: 200.0 mg/kg/injection, schedule: Q01DX009 (ip), vehicle: saline with Tween-80
[14] = dose: 60.0 mg/kg/injection, schedule: Q01DX005 (ip), vehicle: saline with Tween-80
[15] = dose: 120.0 mg/kg/injection, schedule: Q01DX005 (ip), vehicle: saline with Tween-80
[16] = dose: 240.0 mg/kg/injection, schedule: Q01DX005 (ip), vehicle: saline with Tween-80
[17] = dose: 50.0 mg/kg/injection, schedule: Q01DX005 (ip), vehicle: saline with Tween-80
[18] = dose: 100.0 mg/kg/injection, schedule: Q01DX005 (ip), vehicle: saline with Tween-80
[19] = dose: 200.0 mg/kg/injection, schedule: Q01DX005 (ip), vehicle: saline with Tween-80
[20] = dose: 50.0 mg/kg/injection, schedule: Q01DX009 (ip), vehicle: saline
[21] = dose: 100.0 mg/kg/injection, schedule: Q01DX009 (ip), vehicle: saline
[22] = dose: 200.0 mg/kg/injection, schedule: Q01DX009 (ip), vehicle: saline
[23] = dose: 100.0 mg/kg/injection, schedule: Q01DX001 (ip), vehicle: saline with Tween-80
[24] = dose: 200.0 mg/kg/injection, schedule: Q01DX001 (ip), vehicle: saline with Tween-80

Measured: T/C

NNC(=O)c1nc2ccccc2s1
inactive: dose: 37.5 mg/kg/injection, schedule: Q04DX003 (ip), vehicle: saline with Tween-80 100 % of control | dose: 75.0 mg/kg/injection, schedule: Q04DX003 (ip), vehicle: saline with Tween-80 100 % of control | dose: 150.0 mg/kg/injection, schedule: Q04DX003 (ip), vehicle: saline with Tween-80 95 % of control

Nc1ccccc1S(=O)(=O)Nc1c(N)[nH]c(=S)[nH]c1=O
inactive: [1] 105 % of control | [2] 99 % of control | [3] 113 % of control

NC(=O)[C@@H]1CC2CCC1C2 (some centres not stated)
inactive: [4] 88 % of control | [5] 93 % of control | [6] 87 % of control

Cc1ccc2cccc(OC(=O)c3c(F)cccc3Cl)c2n1
inactive: [4] 99 % of control | [5] 96 % of control | [6] 99 % of control

c1ccc(CN2COC3CCCCCCC32)cc1 (configuration not stated)
inactive: [7] 104 % of control | [8] 112 % of control | [9] 114 % of control

COc1cc2c(cc1OC(C)=O)C(=O)C(Br)(Br)CCC2
inactive: dose: 15.0 mg/kg/injection, schedule: Q01DX009 (ip), vehicle: saline with Tween-80 98 % of control | [10] 103 % of control | dose: 30.0 mg/kg/injection, schedule: Q01DX009 (ip), vehicle: saline with Tween-80 106 % of control | [11] 100 % of control and 116 % of control | dose: 60.0 mg/kg/injection, schedule: Q01DX009 (ip), vehicle: saline with Tween-80 100 % of control | [12] 99 % of control | [13] 106 % of control

O=C(CO)CC(=O)CCC(=O)Nc1cccc([N+](=O)[O-])c1
inactive: [14] 105 % of control | [15] 111 % of control | [16] 105 % of control

O=C(Nc1cccc2c(OC(=O)C(Cl)Cl)c(N=Nc3ccc(S(=O)(=O)Nc4nccs4)cc3)cc(N=Nc3ccc(S(=O)(=O)Nc4nccs4)cc3)c12)C(Cl)Cl (tested in a mixture with another compound)
inactive: dose: 3.12 mg/kg/injection, schedule: Q01DX009 (ip), vehicle: saline with Tween-80 107 % of control | dose: 6.25 mg/kg/injection, schedule: Q01DX009 (ip), vehicle: saline with Tween-80 104 % of control | dose: 12.5 mg/kg/injection, schedule: Q01DX009 (ip), vehicle: saline with Tween-80 105 % of control and 110 % of control | [10] 105 % of control [middle of 5 runs] | [13] 108 % of control [middle of 8 runs]

COc1cc(Br)c2nsnc2c1
inactive: [17] 91 % of control | [18] 91 % of control

CCOc1ccc(NC2OC(CO)C(O)C(O)C2NC(C)=O)cc1 (configuration not stated)
inactive: [17] 105 % of control | [18] 101 % of control | [19] 96 % of control

COc1ccccc1-n1s/c(=N\OC(=O)c2sc3ccccc3c2Cl)sc1=S
inactive: [20] 93 % of control | [21] 94 % of control | [22] 94 % of control

CN1C(c2ccccc2Cl)C2CCCC(C2O)C1c1ccccc1Cl (configuration not stated)
inactive: dose: 100.0 mg/kg/injection, schedule: Q04DX003 (ip), vehicle: saline 100 % of control | dose: 200.0 mg/kg/injection, schedule: Q04DX003 (ip), vehicle: saline 100 % of control | dose: 400.0 mg/kg/injection, schedule: Q04DX003 (ip), vehicle: saline 95 % of control

Cc1cc(C(=O)N/N=C/c2cc(Cl)cc(Cl)c2O)c2cc(Br)ccc2n1
inactive: [11] 91 % of control | [12] 91 % of control | [13] 93 % of control

c1ccc(CC23CCCCC2N3)cc1 (configuration not stated)
inactive: dose: 12.5 mg/kg/injection, schedule: Q01DX009 (ip), vehicle: saline 95 % of control | dose: 12.5 mg/kg/injection, schedule: Q04DX003 (ip), vehicle: saline 90 % of control | dose: 25.0 mg/kg/injection, schedule: Q01DX009 (ip), vehicle: saline 113 % of control | dose: 25.0 mg/kg/injection, schedule: Q04DX003 (ip), vehicle: saline 90 % of control | [20] 100 % of control | dose: 50.0 mg/kg/injection, schedule: Q04DX003 (ip), vehicle: saline 100 % of control

CCN1C(NN)=NS(=O)(=O)c2ccccc21
inactive: [14] 103 % of control | [15] 106 % of control | [16] 94 % of control

[Cl][Sn]([Cl])([c]1ccccc1)[c]1ccccc1.c1ccc(-c2nnc(-c3ccccn3)nc2-c2ccccc2)cc1
inactive: dose: 0.79 mg/kg/injection, schedule: Q01DX005 (ip), vehicle: Klucel (hydroxypropylcellulose) (HPC) 101 % of control and 120 % of control | dose: 1.56 mg/kg/injection, schedule: Q01DX005 (ip), vehicle: Klucel (hydroxypropylcellulose) (HPC) 120 % of control | dose: 3.12 mg/kg/injection, schedule: Q01DX005 (ip), vehicle: Klucel (hydroxypropylcellulose) (HPC) 123 % of control

CC(=O)c1oc2cc([N+](=O)[O-])c3ccccc3c2c1C
inactive: [14] 107 % of control | [15] 98 % of control | [16] 88 % of control

O=S(=O)(CS(=O)(=O)Oc1ccccc1)Oc1ccccc1
inactive: dose: 100.0 mg/kg/injection, schedule: Q04DX002 (ip), vehicle: saline with Tween-80 104 % of control | dose: 200.0 mg/kg/injection, schedule: Q04DX002 (ip), vehicle: saline with Tween-80 96 % of control | dose: 400.0 mg/kg/injection, schedule: Q04DX002 (ip), vehicle: saline with Tween-80 98 % of control

CCOC(=O)NN(C(=O)OCC)C(C(C)=O)C(C)=O
inactive: [1] 104 % of control | [2] 101 % of control | [3] 98 % of control

Nc1cc(Cl)ccc1C(=O)c1ccccc1Cl
inactive: [14] 102 % of control | [15] 100 % of control | [16] 93 % of control

O=C(Nc1ccc(Cl)cc1)Nc1nnc2nc(CC(=O)c3ccccc3)c(=O)[nH]n12
inactive: [14] 98 % of control | [15] 99 % of control | [16] 91 % of control

Cc1[nH]c(-c2ccccc2)c2[nH]c(=O)n(-c3ccccc3)c(=O)c12
inactive: dose: 100.0 mg/kg/injection, schedule: Q04DX003 (ip), vehicle: Klucel (hydroxypropylcellulose) (HPC) 93 % of control | dose: 200.0 mg/kg/injection, schedule: Q04DX003 (ip), vehicle: Klucel (hydroxypropylcellulose) (HPC) 98 % of control | dose: 400.0 mg/kg/injection, schedule: Q04DX003 (ip), vehicle: Klucel (hydroxypropylcellulose) (HPC) 93 % of control

NC(=O)N/N=C1\CC2C=CC1/C=C\C=C\2 (configuration not stated)
inactive: [23] 100 % of control | [24] 106 % of control | dose: 400.0 mg/kg/injection, schedule: Q01DX001 (ip), vehicle: saline with Tween-80 106 % of control

COc1cc2c(Cl)ncnc2c(OC)c1OC
inactive: [17] 106 % of control | [18] 106 % of control | [19] 109 % of control

O=c1cc([N+](=O)[O-])c2c([nH]1)CCC2
inactive: [17] 97 % of control | [18] 94 % of control | [19] 90 % of control

CCOC(=O)C#Cc1cccc(C#CC(=O)OCC)c1
inactive: dose: 50.0 mg/kg/injection, schedule: Q01DX001 (ip), vehicle: saline with Tween-80 98 % of control | [23] 99 % of control and 118 % of control | [24] 120 % of control

CN(C)C(=O)c1cccc2ccc[n+](C)c12
inactive: dose: 78.0 micrograms/kg/injection, schedule: Q04DX002 (ip), vehicle: saline 98 % of control | dose: 156.0 micrograms/kg/injection, schedule: Q04DX002 (ip), vehicle: saline 99 % of control | dose: 312.0 micrograms/kg/injection, schedule: Q04DX002 (ip), vehicle: saline 98 % of control

c1ccc(CON(CCc2ccccn2)CCc2ccccn2)cc1
inactive: [7] 97 % of control | [8] 98 % of control | [9] 98 % of control

C=CCN(CC=C)c1nc(N)nc(N)n1
inactive: [20] 96 % of control | [21] 90 % of control | [22] 121 % of control

N#CC1=C(N)OC(C2CC2)=C(C#N)C1c1ccco1 (configuration not stated)
inactive: [1] 88 % of control | [2] 88 % of control
